Legend:
[1] = test system: AKT and Foxo1 phosphorylation; experiment: Immunoblot of AKT signaling in peptide-treated xenograft tumors; format: in vivo, mice
Description: FIG. 6 is an immunoblot illustrating the stapled mutant peptide inhibits AKT signaling in xenograft tumors.
Five-week-old male athymic nude mice were injected with 5 million cells subcutaneously and bilaterally. When tumor sizes reached 100-150 mm^3, 10 mice with similar sized tumors on both flanks were selected. The left flank tumors were injected with stapled WT p110α peptide, whereas the right flank tumors were injected with stapled p110α E545K mutant peptide. Each tumor was injected with 250 μg of peptide daily for 14 days. Control xenograft tumors were injected with an equal volume of water. The tumor sizes were measured every 2 days.

[2] = target: T1, protein interaction between p110α Q546P and IRS1 in Vaco481 CRC cells (Homo sapiens, UniProt P35568); experiment: Co-IP (anti-p110α) from Vaco481 CRC cells treated with stapled mutant peptide; format: cell-based
T1 construct: endogenous in cells; host or cells: Vaco481 CRC cells
T1 sequence (P35568 1-1242): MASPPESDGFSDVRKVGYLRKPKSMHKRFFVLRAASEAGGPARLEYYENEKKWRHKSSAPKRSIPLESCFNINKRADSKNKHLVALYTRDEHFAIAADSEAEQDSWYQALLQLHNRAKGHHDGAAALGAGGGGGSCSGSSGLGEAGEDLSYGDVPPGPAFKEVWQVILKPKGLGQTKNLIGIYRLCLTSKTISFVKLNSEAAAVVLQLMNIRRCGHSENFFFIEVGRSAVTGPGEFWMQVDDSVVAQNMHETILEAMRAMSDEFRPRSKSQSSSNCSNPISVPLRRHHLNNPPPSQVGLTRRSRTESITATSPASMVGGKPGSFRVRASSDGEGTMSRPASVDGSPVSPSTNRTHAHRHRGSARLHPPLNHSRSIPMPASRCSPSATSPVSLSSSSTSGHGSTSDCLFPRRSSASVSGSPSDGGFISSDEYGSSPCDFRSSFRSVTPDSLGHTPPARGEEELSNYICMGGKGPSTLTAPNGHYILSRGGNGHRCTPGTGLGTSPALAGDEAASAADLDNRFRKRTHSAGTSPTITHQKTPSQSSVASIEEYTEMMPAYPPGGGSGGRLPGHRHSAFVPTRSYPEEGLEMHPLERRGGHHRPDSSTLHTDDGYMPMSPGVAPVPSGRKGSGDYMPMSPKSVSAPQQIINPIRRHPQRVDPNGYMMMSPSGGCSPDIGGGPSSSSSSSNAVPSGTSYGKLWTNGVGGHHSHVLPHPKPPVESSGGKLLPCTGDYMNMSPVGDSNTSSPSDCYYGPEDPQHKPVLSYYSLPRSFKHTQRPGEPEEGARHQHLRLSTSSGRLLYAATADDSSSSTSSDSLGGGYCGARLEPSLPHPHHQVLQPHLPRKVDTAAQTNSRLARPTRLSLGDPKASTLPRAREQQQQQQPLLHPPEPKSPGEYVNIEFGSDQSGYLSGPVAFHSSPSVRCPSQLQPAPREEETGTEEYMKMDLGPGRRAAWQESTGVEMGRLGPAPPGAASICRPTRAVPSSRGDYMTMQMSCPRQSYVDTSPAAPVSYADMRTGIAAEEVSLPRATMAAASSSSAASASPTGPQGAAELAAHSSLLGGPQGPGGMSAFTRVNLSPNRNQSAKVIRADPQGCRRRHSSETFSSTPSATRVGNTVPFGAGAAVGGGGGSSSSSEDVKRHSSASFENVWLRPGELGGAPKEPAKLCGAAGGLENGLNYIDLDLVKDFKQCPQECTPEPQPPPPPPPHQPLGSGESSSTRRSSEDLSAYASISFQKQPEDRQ
Description: FIG. 4(A-F) illustrate: (A) Schematic diagram of linear and stapled WT and mutant peptides derived from p110α (SEQ ID NOs: 5, 6, 7 and 8). (B) Immunoblots of cell lysates immunoprecipitated with beads conjugated with anti-FLAG antibodies and then blotted with the indicated antibodies. Linear or stapled WT and mutant peptide were added into culture medium of the p110α E545K 3×FLAG KI cells for 16 hr. (C) Immunoblots of cell lysates immunoprecipitated with anti-p110α antibodies and then blotted with the indicated antibodies. Vaco481 CRC cells were treated with the stapled mutant peptides at the indicated concentration. (D) Immunoblots of cell lysates blotted with the indicated antibodies. The indicated cell lines were treated with the stapled mutant peptide. (E) Immunoblots of cell lysates blotted with the indicated antibodies. […]
For Co-immunoprecipitation (Co-IP), cells were harvested, washed with PBS, and then lysed in IP buffer (50 mMTris [pH 7.4], 150 mMNaCl, 5 mMEDTA [pH 8.0], 0.5% NP40, 1 mM PMSF, complete Protease Inhibitor Cocktail tablet [Roche]; supplemented with phosphatase inhibitors [1 mM Na3VO4, 20 mM NaF, 0.1 mM b-glycerophosphate, 20 mM sodium pyrophosphate] when necessary). […] Lysates were then cleared by centrifugation (14,000 rpm, 10 min) and protein concentration in supernatants was determined with a BCA protein assay kit (Pierce, Rockford, Ill.). […]

[3] = peptide-treated xenograft tumors

H2N-SEITKQEK-D^549-FLW-S^553-HRHYC-COOH [stapled mutant peptide]
AKT signaling in xenograft tumors ([1]; FIG. 6 legend): inhibits
AKT and Foxo1 phosphorylation in xenograft tumors [1, 3]: reduced
AKT phosphorylation at T308 and S473 residues in xenograft tumors [1, 3]: only decreased AKT phosphorylation at the S473 residue
disruption of protein interaction between p110α Q546P and IRS1 [2]: disrupted

Source: patent US20140005119A1, “COMPOSITIONS AND METHODS FOR INHIBITING THE ACTIVITY OF P110a MUTANT PROTEINS” (Case Western Reserve University, priority 2012, published 2014)
